These results are taken from ChEMBL document CHEMBL4732135, “Structural and mechanistic insights into the inhibition of amyloid-β aggregation by Aβ fragment derived synthetic peptides” (Eur J Med Chem, 2021).

Square brackets hold non-standard residues; d marks the D form. Peptide text beside a SMILES is read from it. Tle = CC(C)(C)[C@H](N)C(=O)O

One data set relates to PC-12. The experiment in a line: Neuroprotective activity against amyloid beta 42-induced toxicity in rat PC-12 cells assessed as cell viability at 1 uM measured after 6 hrs by MTT assay (reference value: 73.8%). Format: functional. The note with it: read-out: Activity.
Turning to `CC[C@H](C)[C@H](NC(=O)[C@@H](NC(=O)[C@@H](N)C(C)(C)C)C(C)(C)C)C(=O)N[C@@H](C)C(=O)O` (H-[Tle][Tle]IA-OH), the viability at 1 µM came out at 97.6%.

Tested on in the next data set: not listed separately
The experiment in a line: Effective permeability of compound in pH 8 PBS buffer by PAMPA-BBB assay. Format: ADME.
Conditions: not given
(PAMPA measures passive passage across an artificial lipid membrane.)
`CC[C@H](C)[C@H](NC(=O)[C@H](Cc1ccccc1)NC(=O)[C@@H](N)Cc1ccccc1)C(=O)N[C@@H](C)C(=O)O` (H-FFIA-OH): the Peff result was “Permeable”.

As to `CC[C@H](C)[C@H](NC(=O)[C@@H](NC(=O)[C@@H](N)C(C)C)C(C)C)C(=O)N[C@@H](C)C(=O)O` (H-VVIA-OH), the Peff entry is listed as “Permeable”.

In another data set the target is Amyloid-beta precursor protein (Homo sapiens) (UniProt P05067). Nature of the data set: Inhibition of amyloid beta (1 to 42) (unknown origin) assessed as reduction in peptide aggregation at 1 uM measured after 24 hrs by thioflavin-T fluorescence assay relative to control.
Chain of Amyloid-beta precursor protein (Homo sapiens) (P05067 whole entry): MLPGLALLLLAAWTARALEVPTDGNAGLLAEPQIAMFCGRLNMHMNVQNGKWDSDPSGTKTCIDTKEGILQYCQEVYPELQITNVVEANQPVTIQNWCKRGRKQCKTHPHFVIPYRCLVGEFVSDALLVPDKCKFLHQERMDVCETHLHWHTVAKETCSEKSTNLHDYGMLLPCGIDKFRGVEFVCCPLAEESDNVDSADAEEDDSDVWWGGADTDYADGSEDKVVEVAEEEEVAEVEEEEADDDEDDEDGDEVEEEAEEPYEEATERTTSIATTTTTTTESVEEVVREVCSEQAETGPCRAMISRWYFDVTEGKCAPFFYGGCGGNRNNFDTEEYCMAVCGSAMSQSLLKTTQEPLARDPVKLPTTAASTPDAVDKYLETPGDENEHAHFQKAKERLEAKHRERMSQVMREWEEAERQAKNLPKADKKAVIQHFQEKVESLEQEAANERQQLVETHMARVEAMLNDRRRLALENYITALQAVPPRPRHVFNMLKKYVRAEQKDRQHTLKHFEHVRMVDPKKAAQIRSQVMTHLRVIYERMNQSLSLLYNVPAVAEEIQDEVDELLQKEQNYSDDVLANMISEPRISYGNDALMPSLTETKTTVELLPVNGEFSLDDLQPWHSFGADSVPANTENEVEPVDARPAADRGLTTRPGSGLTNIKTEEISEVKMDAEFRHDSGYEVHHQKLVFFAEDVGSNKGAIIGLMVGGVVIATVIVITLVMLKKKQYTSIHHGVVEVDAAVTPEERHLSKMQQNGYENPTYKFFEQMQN
Conditions: not given
Regarding `CC[C@H](C)[C@H](NC(=O)[C@@H](NC(=O)[C@@H](N)C(C)(C)C)C(C)(C)C)C(=O)N[C@@H](C)C(=O)O` (H-[Tle][Tle]IA-OH), the inhibition – broadly, the relative decrease from the control value, in per cent – stood at 51.8%.

The test system of the next data set is PC-12. The experiment in a line: Neuroprotective activity against amyloid beta 42-induced toxicity in rat PC-12 cells assessed as cell viability at 0.1 uM measured after 6 hrs by MTT assay (reference value: 73.8%). Format: functional. The note with it: read-out: Activity. On the technique in general: Tetrazolium assays rely on reduction of a dye to a coloured formazan, in cell work by metabolically active cells.
For the molecule `CC[C@H](C)[C@H](NC(=O)[C@@H](NC(=O)[C@@H](N)C(C)(C)C)C(C)(C)C)C(=O)N[C@@H](C)C(=O)O` (H-[Tle][Tle]IA-OH), the viability at 0.1 µM was 91.2%.

In another data set the target is Amyloid-beta precursor protein (Homo sapiens) (UniProt P05067). Nature of the data set: Inhibition of amyloid beta (1 to 42) (unknown origin) assessed as reduction in peptide aggregation at 4 uM measured after 24 hrs by thioflavin-T fluorescence assay relative to control.
Conditions: not given
As for `CC[C@H](C)[C@H](NC(=O)[C@H](Cc1ccccc1)NC(=O)[C@@H](N)Cc1ccccc1)C(=O)N[C@@H](C)C(=O)O` (H-FFIA-OH), the inhibition is 97.2%.

For the molecule `CC[C@H](C)[C@H](NC(=O)[C@@H](NC(=O)[C@@H](N)C(C)C)C(C)C)C(=O)N[C@@H](C)C(=O)O` (H-VVIA-OH), the inhibition turned out to be 60.6%.

Regarding `CC[C@H](C)[C@H](NC(=O)[C@@H](NC(=O)[C@@H](N)C(C)(C)C)C(C)(C)C)C(=O)N[C@@H](C)C(=O)O` (H-[Tle][Tle]IA-OH), the inhibition is 97.4%.

For the next data set the target is unchanged. The experiment in a line: Inhibition of amyloid beta (1 to 42) (unknown origin) assessed as reduction in peptide aggregation at 0.1 uM measured after 24 hrs by thioflavin-T fluorescence assay relative to control.
Conditions: not given
As to `CC[C@H](C)[C@H](NC(=O)[C@@H](NC(=O)[C@@H](N)C(C)(C)C)C(C)(C)C)C(=O)N[C@@H](C)C(=O)O` (H-[Tle][Tle]IA-OH), the inhibition was 34.4%.

The test system of a further data set is PC-12. Nature of the data set: Cytotoxicity against rat PC-12 cells assessed as reduction in cell viability at 20 uM measured after 6 hrs by MTT assay. The following applies: pc-12, 6 h. Format: cell-based.
`CC[C@H](C)[C@H](NC(=O)[C@H](Cc1ccccc1)NC(=O)[C@@H](N)Cc1ccccc1)C(=O)N[C@@H](C)C(=O)O` (H-FFIA-OH): the Activity entry is “Non-Toxic”.

As to `CC[C@H](C)[C@H](NC(=O)[C@@H](NC(=O)[C@@H](N)C(C)(C)C)C(C)(C)C)C(=O)N[C@@H](C)C(=O)O` (H-[Tle][Tle]IA-OH), the Activity result is “Non-Toxic”.

A further data set has as its target Amyloid-beta precursor protein (Homo sapiens) (UniProt P05067). Nature of the data set: Inhibition of amyloid beta (1 to 42) (unknown origin) aggregation assessed as relative fluorescence unit at 4 uM measured after 24 hrs by thioflavin-T fluorescence assay (reference value: 100%).
Conditions: not given
Regarding `CC[C@H](C)[C@H](NC(=O)[C@@H](NC(=O)[C@@H](N)C(C)(C)C)C(C)(C)C)C(=O)N[C@@H](C)C(=O)O` (H-[Tle][Tle]IA-OH), the RFU stood at 54.5%.

A further data set shares this target. The experiment in a line: Inhibition of amyloid beta (1 to 42) (unknown origin) assessed as reduction in peptide aggregation at 2 uM measured after 24 hrs by thioflavin-T fluorescence assay relative to control.
Conditions: not given
In the case of `CC[C@H](C)[C@H](NC(=O)[C@H](Cc1ccccc1)NC(=O)[C@@H](N)Cc1ccccc1)C(=O)N[C@@H](C)C(=O)O` (H-FFIA-OH), the inhibition was 92.2%.

With `CC[C@H](C)[C@H](NC(=O)[C@@H](NC(=O)[C@@H](N)C(C)C)C(C)C)C(=O)N[C@@H](C)C(=O)O` (H-VVIA-OH), the inhibition stood at 33.9%.

Regarding `CC[C@H](C)[C@H](NC(=O)[C@@H](NC(=O)[C@@H](N)C(C)(C)C)C(C)(C)C)C(=O)N[C@@H](C)C(=O)O` (H-[Tle][Tle]IA-OH), the inhibition is 100%.

The target is the same in another data set. Nature of the data set: Inhibition of amyloid beta (1 to 42) (unknown origin) assessed as reduction in peptide aggregation at 10 uM measured after 24 hrs by thioflavin-T fluorescence assay relative to control.
Conditions: not given
On to `CC[C@H](C)[C@H](NC(=O)[C@H](Cc1ccccc1)NC(=O)[C@@H](N)Cc1ccccc1)C(=O)N[C@@H](C)C(=O)O` (H-FFIA-OH), for which the inhibition was determined as 100%.

Turning to `CC[C@H](C)[C@H](NC(=O)[C@@H](NC(=O)[C@@H](N)C(C)C)C(C)C)C(=O)N[C@@H](C)C(=O)O` (H-VVIA-OH), the inhibition stood at 66.2%.

Regarding `CC[C@H](C)[C@H](NC(=O)[C@@H](NC(=O)[C@@H](N)C(C)(C)C)C(C)(C)C)C(=O)N[C@@H](C)C(=O)O` (H-[Tle][Tle]IA-OH), the inhibition was determined as 95.3%.

A further data set has as its system PC-12. The experiment in a line: Neuroprotective activity against amyloid beta 42-induced toxicity in rat PC-12 cells assessed as cell viability at 4 uM measured after 6 hrs by MTT assay (reference value: 74.05%). The format is functional. The following applies: read-out: Activity.
As for `CC[C@H](C)[C@H](NC(=O)[C@H](Cc1ccccc1)NC(=O)[C@@H](N)Cc1ccccc1)C(=O)N[C@@H](C)C(=O)O` (H-FFIA-OH), the viability at 4 µM amounted to 100%.

Take `CC[C@H](C)[C@H](NC(=O)[C@@H](NC(=O)[C@@H](N)C(C)C)C(C)C)C(=O)N[C@@H](C)C(=O)O` (H-VVIA-OH): the viability at 4 µM was 90.5%.

`CC[C@H](C)[C@H](NC(=O)[C@@H](NC(=O)[C@@H](N)C(C)(C)C)C(C)(C)C)C(=O)N[C@@H](C)C(=O)O` (H-[Tle][Tle]IA-OH): the viability at 4 µM was determined as 100%.

A further data set relates to PC-12. Nature of the data set: Neuroprotective activity against amyloid beta 42-induced toxicity in rat PC-12 cells assessed as cell viability at 2 uM measured after 6 hrs by MTT assay (reference value: 74.05%). The format is functional. The following applies: read-out: Activity.
For the molecule `CC[C@H](C)[C@H](NC(=O)[C@H](Cc1ccccc1)NC(=O)[C@@H](N)Cc1ccccc1)C(=O)N[C@@H](C)C(=O)O` (H-FFIA-OH), the viability at 2 µM worked out at 98%.

Take `CC[C@H](C)[C@H](NC(=O)[C@@H](NC(=O)[C@@H](N)C(C)C)C(C)C)C(=O)N[C@@H](C)C(=O)O` (H-VVIA-OH): the viability at 2 µM came to 78.9%.

In the case of `CC[C@H](C)[C@H](NC(=O)[C@@H](NC(=O)[C@@H](N)C(C)(C)C)C(C)(C)C)C(=O)N[C@@H](C)C(=O)O` (H-[Tle][Tle]IA-OH), the viability at 2 µM was found to be 100%.

A further data set deals with Amyloid-beta precursor protein (Homo sapiens) (UniProt P05067). Nature of the data set: Inhibition of amyloid beta (1 to 42) (unknown origin) aggregation assessed as relative fluorescence unit at 10 uM measured after 24 hrs by thioflavin-T fluorescence assay (reference value: 100%).
Conditions: not given
On to `CC[C@H](C)[C@H](NC(=O)[C@@H](NC(=O)[C@@H](N)C(C)(C)C)C(C)(C)C)C(=O)N[C@@H](C)C(=O)O` (H-[Tle][Tle]IA-OH), for which the RFU stood at 55.5%.

Another data set relates to PC-12. Nature of the data set: Neuroprotective activity against amyloid beta 42-induced toxicity in rat PC-12 cells assessed as cell viability at 0.5 uM measured after 6 hrs by MTT assay (reference value: 73.8%). The following applies: read-out: Activity. Format: functional.
For the molecule `CC[C@H](C)[C@H](NC(=O)[C@@H](NC(=O)[C@@H](N)C(C)(C)C)C(C)(C)C)C(=O)N[C@@H](C)C(=O)O` (H-[Tle][Tle]IA-OH), the viability at 0.5 µM is 94.5%.

The target of a further data set is Amyloid-beta precursor protein (Homo sapiens) (UniProt P05067). The experiment in a line: Inhibition of amyloid beta (1 to 42) (unknown origin) aggregation assessed as relative fluorescence unit at 2 uM measured after 24 hrs by thioflavin-T fluorescence assay (reference value: 100%).
Conditions: not given
Regarding `CC[C@H](C)[C@H](NC(=O)[C@@H](NC(=O)[C@@H](N)C(C)(C)C)C(C)(C)C)C(=O)N[C@@H](C)C(=O)O` (H-[Tle][Tle]IA-OH), the RFU came to 51.2%.

Another data set relates to PC-12. Nature of the data set: Neuroprotective activity against amyloid beta 42-induced toxicity in rat PC-12 cells assessed as cell viability at 10 uM measured after 6 hrs by MTT assay (reference value: 74.05%). Format: functional. The note with it: read-out: Activity.
As for `CC[C@H](C)[C@H](NC(=O)[C@H](Cc1ccccc1)NC(=O)[C@@H](N)Cc1ccccc1)C(=O)N[C@@H](C)C(=O)O` (H-FFIA-OH), the viability at 10 µM was 83.8%.

For the molecule `CC[C@H](C)[C@H](NC(=O)[C@@H](NC(=O)[C@@H](N)C(C)C)C(C)C)C(=O)N[C@@H](C)C(=O)O` (H-VVIA-OH), the viability at 10 µM turned out to be 93.6%.

Take `CC[C@H](C)[C@H](NC(=O)[C@@H](NC(=O)[C@@H](N)C(C)(C)C)C(C)(C)C)C(=O)N[C@@H](C)C(=O)O` (H-[Tle][Tle]IA-OH): the viability at 10 µM amounted to 100%.

Another data set concerns the target Amyloid-beta precursor protein (Homo sapiens) (UniProt P05067). Nature of the data set: Inhibition of amyloid beta (1 to 42) (unknown origin) assessed as reduction in peptide aggregation at 0.5 uM measured after 24 hrs by thioflavin-T fluorescence assay relative to control.
Conditions: not given
As to `CC[C@H](C)[C@H](NC(=O)[C@@H](NC(=O)[C@@H](N)C(C)(C)C)C(C)(C)C)C(=O)N[C@@H](C)C(=O)O` (H-[Tle][Tle]IA-OH), the inhibition came out at 41.3%.

For another data set, the system named is Cortical neurone. Nature of the data set: Cytotoxicity against rat primary cortical neuron assessed as reduction in cell viability at 20 uM measured after 6 hrs by MTT assay. Format: cell-based.
Conditions: not given
In the case of `CC[C@H](C)[C@H](NC(=O)[C@H](Cc1ccccc1)NC(=O)[C@@H](N)Cc1ccccc1)C(=O)N[C@@H](C)C(=O)O` (H-FFIA-OH), the Activity entry is listed as “Non-Toxic”.

Take `CC[C@H](C)[C@H](NC(=O)[C@@H](NC(=O)[C@@H](N)C(C)(C)C)C(C)(C)C)C(=O)N[C@@H](C)C(=O)O` (H-[Tle][Tle]IA-OH): the Activity result was “Non-Toxic”.
